This note sets out measurements from patent US8013156B2 (Exelixis, Inc., priority 2003, dated 2011).

As usually defined, the IC50 is the concentration at which inhibition is half-maximal.

This experiment has as its target Tie-2 (Homo sapiens, UniProt Q02763). Put plainly: Tie-2 tyrosine kinase activity assay (luciferase/luciferin ATP consumption with pEY substrate, or 33P-ATP incorporation). The format is biochemical. The following applies: human enzyme Tie-2. In a few lines: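 Values are IC50 categories (A <50 nM to D ≥10,000 nM), with Ki obtainable by fitting rates to a tight-binding model. Assay formats: 33P-ATP phosphate transfer to adsorbed generic substrate counted by scintillation, or luciferase-detected ATP depletion using pEY.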

Each structure is given as a SMILES string.

Tie-2, sequence (Q02763 23-1124): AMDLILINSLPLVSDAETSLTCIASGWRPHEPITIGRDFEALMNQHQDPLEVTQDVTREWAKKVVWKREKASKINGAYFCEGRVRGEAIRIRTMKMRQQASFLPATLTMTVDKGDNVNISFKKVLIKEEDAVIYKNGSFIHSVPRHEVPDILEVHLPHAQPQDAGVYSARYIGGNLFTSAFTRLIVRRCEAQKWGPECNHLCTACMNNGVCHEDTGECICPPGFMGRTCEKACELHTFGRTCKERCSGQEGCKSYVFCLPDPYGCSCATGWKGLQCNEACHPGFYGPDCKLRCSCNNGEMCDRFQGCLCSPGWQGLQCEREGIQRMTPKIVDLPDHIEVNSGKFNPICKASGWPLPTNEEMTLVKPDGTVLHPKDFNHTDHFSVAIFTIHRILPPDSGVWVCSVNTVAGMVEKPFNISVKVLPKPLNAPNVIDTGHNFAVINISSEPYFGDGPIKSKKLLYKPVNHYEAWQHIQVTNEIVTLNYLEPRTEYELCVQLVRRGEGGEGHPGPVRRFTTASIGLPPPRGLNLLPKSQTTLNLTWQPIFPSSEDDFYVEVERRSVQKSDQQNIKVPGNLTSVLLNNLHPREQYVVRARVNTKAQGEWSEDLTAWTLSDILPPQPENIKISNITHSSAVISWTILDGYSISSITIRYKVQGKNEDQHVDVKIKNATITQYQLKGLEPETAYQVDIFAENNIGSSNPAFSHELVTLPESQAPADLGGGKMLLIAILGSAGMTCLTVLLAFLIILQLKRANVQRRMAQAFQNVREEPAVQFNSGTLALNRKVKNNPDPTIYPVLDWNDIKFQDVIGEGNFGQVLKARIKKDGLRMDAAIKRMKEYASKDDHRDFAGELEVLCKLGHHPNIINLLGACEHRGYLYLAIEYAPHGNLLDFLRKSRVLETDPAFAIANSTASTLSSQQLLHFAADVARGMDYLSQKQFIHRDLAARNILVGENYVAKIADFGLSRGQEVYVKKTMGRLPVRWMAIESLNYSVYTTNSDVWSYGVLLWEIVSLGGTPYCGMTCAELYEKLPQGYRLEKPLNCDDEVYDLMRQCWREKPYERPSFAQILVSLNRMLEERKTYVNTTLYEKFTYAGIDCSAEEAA

In turn, `Nc1nccc(COc2nsnc2N2CCN(C(=O)Nc3cc(C(F)(F)F)cc(Cl)c3F)CC2)n1` [Example 248, 4-(4-{[(2-aminopyrimidin-4-yl)methyl]oxy}-1,2,5-thiadiazol-3-yl)-N-[3-chloro-2-fluoro-5-(trifluoromethyl)phenyl]piperazine-1-carboxamide] returned a concentration for half-maximal inhibition (IC50) of less than 50 nM.
The compound `Nc1nccc(COc2cccnc2N2CCN(C(=O)Nc3cc(C(F)(F)F)cc(Cl)c3F)CC2)n1` [Example 249, 4-(3-{[(2-aminopyrimidin-4-yl)methyl]oxy}pyridin-2-yl)-N-[3-chloro-2-fluoro-5-(trifluoromethyl)phenyl]piperazine-1-carboxamide] had an IC50 of less than 50 nM.
For `CN(C(=O)N1CCN(c2ncccc2OCc2ccnc(N)n2)CC1)c1cc(C(F)(F)F)cc(C(F)(F)F)c1` [Example 250, 4-(3-{[(2-aminopyrimidin-4-yl)methyl]oxy}pyridin-2-yl)-N-[3,5-bis(trifluoromethyl)phenyl]-N-methylpiperazine-1-carboxamide], the IC50 is less than 50 nM.
The compound `CC(C)c1cccc(NC(=O)N2CCN(c3nccnc3OCc3ccnc(N)n3)CC2)c1` [Example 251, 4-(3-{[(2-aminopyrimidin-4-yl)methyl]oxy}pyrazin-2-yl)-N-[3-(1-methylethyl)phenyl]piperazine-1-carboxamide] gave an IC50 of less than 50 nM.
`CCc1cc(NC(=O)N2CCN(c3nsnc3OCc3ccnc(N)n3)CC2)ccc1F` [Example 252, 4-(4-{[(2-aminopyrimidin-4-yl)methyl]oxy}-1,2,5-thiadiazol-3-yl)-N-(3-ethyl-4-fluorophenyl)piperazine-1-carboxamide]: the IC50 was 50 to 1000 nM.
`Nc1nccc(COc2nsnc2N2CCN(C(=O)Nc3ccc(F)c(Cl)c3)CC2)n1` [Example 253, 4-(4-{[(2-aminopyrimidin-4-yl)methyl]oxy}-1,2,5-thiadiazol-3-yl)-N-(3-chloro-4-fluorophenyl)piperazine-1-carboxamide]: the IC50 lay in the range of 1000 to 10000 nM.
As to `COc1ccc(OC)c(NC(=O)N2CCN(c3nsnc3OCc3ccnc(N)n3)CC2)c1` [Example 254, 4-(4-{[(2-aminopyrimidin-4-yl)methyl]oxy}-1,2,5-thiadiazol-3-yl)-N-[2,5-bis(methyloxy)phenyl]piperazine-1-carboxamide], the IC50 lay in the range of 1000 to 10000 nM.
The value for `Nc1nccc(COc2ccccc2N2CCN(C(=O)Nc3cc(C(F)(F)F)cc(C(F)(F)F)c3)CC2)n1` [Example 255, 4-(2-{[(2-aminopyrimidin-4-yl)methyl]oxy}phenyl)-N-[3,5-bis(trifluoromethyl)phenyl]piperazine-1-carboxamide] was less than 50 nM.
For the compound `CCc1cccc(NC(=O)N2CCN(c3ccccc3OCc3ccnc(N)n3)CC2)c1` [Example 256, 4-(2-{[(2-aminopyrimidin-4-yl)methyl]oxy}phenyl)-N-(3-ethylphenyl)piperazine-1-carboxamide], the IC50 was less than 50 nM.
Compound `Nc1nccc(COc2nsnc2N2CCN(C(=O)Nc3cc(Cl)ccc3F)CC2)n1` [Example 257, 4-(4-{[(2-aminopyrimidin-4-yl)methyl]oxy}-1,2,5-thiadiazol-3-yl)-N-(5-chloro-2-fluorophenyl)piperazine-1-carboxamide] showed an IC50 of 1000 to 10000 nM.
`Nc1nccc(COc2nsnc2N2CCN(C(=O)Nc3cccc(OC(F)(F)F)c3)CC2)n1` [Example 258, 4-(4-{[(2-aminopyrimidin-4-yl)methyl]oxy}-1,2,5-thiadiazol-3-yl)-N-{3-[(trifluoromethyl)oxy]phenyl}piperazine-1-carboxamide] came in with an IC50 of less than 50 nM.
The value for `COc1cccc(NC(=O)N2CCN(c3nsnc3OCc3ccnc(N)n3)CC2)c1` [Example 259, 4-(4-{[(2-aminopyrimidin-4-yl)methyl]oxy}-1,2,5-thiadiazol-3-yl)-N-[3-(methyloxy)phenyl]piperazine-1-carboxamide] was 50 to 1000 nM.
`CCc1cc(NC(=O)N2CCN(c3nsnc3OCc3ccnc(N)n3)CC2)cc(C(F)(F)F)c1` [Example 260, 4-(4-{[(2-aminopyrimidin-4-yl)methyl]oxy}-1,2,5-thiadiazol-3-yl)-N-[3-ethyl-5-(trifluoromethyl)phenyl]piperazine-1-carboxamide] gave a half-inhibitory concentration (IC50) of less than 50 nM.
Consider `CC(C)c1cccc(NC(=O)N2CCN(c3nsnc3OCc3ccnc(N)n3)CC2)c1` [Example 261, 4-(4-{[(2-aminopyrimidin-4-yl)methyl]oxy}-1,2,5-thiadiazol-3-yl)-N-[3-(1-methylethyl)phenyl]piperazine-1-carboxamide], for which the IC50 is less than 50 nM.
As to `Nc1nccc(COc2nsnc2N2CCN(C(=O)Nc3cc(C(F)(F)F)ccc3Cl)CC2)n1` [Example 262, 4-(4-{[(2-aminopyrimidin-4-yl)methyl]oxy}-1,2,5-thiadiazol-3-yl)-N-[2-chloro-5-(trifluoromethyl)phenyl]piperazine-1-carboxamide], the IC50 is 50 to 1000 nM.
`Nc1nccc(COc2nsnc2N2CCN(C(=O)Nc3cccc(F)c3)CC2)n1` [Example 263, 4-(4-{[(2-aminopyrimidin-4-yl)methyl]oxy}-1,2,5-thiadiazol-3-yl)-N-(3-fluorophenyl)piperazine-1-carboxamide] gave an IC50 of 1000 to 10000 nM.
As to `CCOc1ccccc1NC(=O)N1CCN(c2nsnc2OCc2ccnc(N)n2)CC1` [Example 264, 4-(4-{[(2-aminopyrimidin-4-yl)methyl]oxy}-1,2,5-thiadiazol-3-yl)-N-[2-(ethyloxy)phenyl]piperazine-1-carboxamide], the IC50 is not below 10000 nM.
`Nc1nccc(COc2nsnc2N2CCN(C(=O)Nc3ccc(F)c(F)c3)CC2)n1` [Example 265, 4-(4-{[(2-aminopyrimidin-4-yl)methyl]oxy}-1,2,5-thiadiazol-3-yl)-N-(3,4-difluorophenyl)piperazine-1-carboxamide] gave an IC50 not below 10000 nM.
`CSc1cccc(NC(=O)N2CCN(c3nsnc3OCc3ccnc(N)n3)CC2)c1` [Example 266, 4-(4-{[(2-aminopyrimidin-4-yl)methyl]oxy}-1,2,5-thiadiazol-3-yl)-N-[3-(methylthio)phenyl]piperazine-1-carboxamide] returned a concentration for half-maximal inhibition (IC50) of 50 to 1000 nM.
Then `CC(=O)c1cccc(NC(=O)N2CCN(c3nsnc3OCc3ccnc(N)n3)CC2)c1` [Example 267, N-(3-acetylphenyl)-4-(4-{[(2-aminopyrimidin-4-yl)methyl]oxy}-1,2,5-thiadiazol-3-yl)piperazine-1-carboxamide], with 1000 to 10000 nM; and `Nc1nccc(COc2ccccc2N2CCN(C(=O)Nc3cc(C(F)(F)F)ccc3F)CC2)n1` [Example 268, 4-(2-{[(2-aminopyrimidin-4-yl)methyl]oxy}phenyl)-N-[2-fluoro-5-(trifluoromethyl)phenyl]piperazine-1-carboxamide], with less than 50 nM.
`Nc1nccc(COc2ccccc2N2CCN(C(=O)Nc3cccc(F)c3)CC2)n1` [Example 269, 4-(2-{[(2-aminopyrimidin-4-yl)methyl]oxy}phenyl)-N-(3-fluorophenyl)piperazine-1-carboxamide]: the IC50 lay in the range of 1000 to 10000 nM.
The value for `Nc1nccc(COc2ccccc2N2CCN(C(=O)Nc3ccccc3)CC2)n1` [Example 270, 4-(2-{[(2-aminopyrimidin-4-yl)methyl]oxy}phenyl)-N-phenylpiperazine-1-carboxamide] was 1000 to 10000 nM.
As for `Nc1nccc(COc2ccccc2N2CCN(C(=O)Nc3cc(Cl)cc(Cl)c3)CC2)n1` [Example 271, 4-(2-{[(2-aminopyrimidin-4-yl)methyl]oxy}phenyl)-N-(3,5-dichlorophenyl)piperazine-1-carboxamide], the IC50 is less than 50 nM.
Consider `Nc1nccc(COc2ccccc2N2CCN(C(=O)Nc3cc(F)cc(C(F)(F)F)c3)CC2)n1` [Example 272, 4-(2-{[(2-aminopyrimidin-4-yl)methyl]oxy}phenyl)-N-[3-fluoro-5-(trifluoromethyl)phenyl]piperazine-1-carboxamide], for which the IC50 was less than 50 nM.
The value for `COc1cc2nccc(COc3nsnc3N3CCN(C(=O)Nc4cc(C(F)(F)F)cc(C(F)(F)F)c4)CC3)c2cc1OC` [Example 273, 4-[4-({[6,7-bis(methyloxy)quinolin-4-yl]methyl}oxy)-1,2,5-thiadiazol-3-yl]-N-[3,5-bis(trifluoromethyl)phenyl]piperazine-1-carboxamide] was less than 50 nM.
The value for `Nc1nccc(COc2nsnc2N2CCN(C(=O)Cc3cc(C(F)(F)F)cc(C(F)(F)F)c3)CC2)n1` [Example 274, 4-({[4-(4-{[3,5-bis(trifluoromethyl)phenyl]acetyl}piperazin-1-yl)-1,2,5-thiadiazol-3-yl]oxy}methyl)pyrimidin-2-amine] was 50 to 1000 nM.
The compound `NC(=O)c1cnc(OCc2ccnc(N)n2)c(N2CCN(C(=O)Nc3cc(C(F)(F)F)cc(C(F)(F)F)c3)CC2)n1` [Example 275, 5-{[(2-aminopyrimidin-4-yl)methyl]oxy}-6-[4-({[3,5-bis(trifluoromethyl)phenyl]amino}carbonyl)piperazin-1-yl]pyrazine-2-carboxamide] came in with an IC50 of less than 50 nM.
Take `COc1cc2nccc(Oc3nsnc3N3CCN(C(=O)Nc4cc(C(F)(F)F)cc(C(F)(F)F)c4)CC3)c2cc1OC` [Example 276, 4-(4-{[6,7-bis(methyloxy)quinolin-4-yl]oxy}-1,2,5-thiadiazol-3-yl)-N-[3,5-bis(trifluoromethyl)phenyl]piperazine-1-carboxamide]: the IC50 was less than 50 nM.
The value for `CCc1cc(NC(=O)N2CCN(c3ccccc3OCc3ccnc(N)n3)CC2)cc(C(F)(F)F)c1` [Example 277, 4-(2-{[(2-aminopyrimidin-4-yl)methyl]oxy}phenyl)-N-[3-ethyl-5-(trifluoromethyl)phenyl]piperazine-1-carboxamide] was less than 50 nM; that for `CCc1ccc(F)c(NC(=O)N2CCN(c3ccccc3OCc3ccnc(N)n3)CC2)c1` [Example 278, 4-(2-{[(2-aminopyrimidin-4-yl)methyl]oxy}phenyl)-N-(5-ethyl-2-fluorophenyl)piperazine-1-carboxamide] was less than 50 nM.
`CCc1cc(CC)cc(NC(=O)N2CCN(c3ccccc3OCc3ccnc(N)n3)CC2)c1` [Example 279, 4-(2-{[(2-aminopyrimidin-4-yl)methyl]oxy}phenyl)-N-(3,5-diethylphenyl)piperazine-1-carboxamide] displayed an IC50 of less than 50 nM.
